Earlier results, collected in US20110189317A1, “Method for Inhibiting the Activity of DPP-IV and Lowering Blood Glucose Level” (Naturalendo Tech Co., Ltd., priority 2006, published 2011).
Where two headings read alike, the source gives them in different places.

Legend:
[1] = combined administration of Metformin with LAF237 or placebo, after 52 weeks; p<0.0001
[2] = tested on: insulin secretion; details: read-out: EC50 (half-maximal effective concentration), insulin secretion

Compound | HbA1c difference [1] [%] | EC50 [2] [nM] | blood glucose level (GLP-1 dropping for 4 hours, patients with secondary failure on oral hypoglycemic agent) | blood glucose level (intravenously, continuously for 1 week, regular diet)
N#C[C@@H]1CCCN1C(=O)CNC12CC3CC(CC(O)(C3)C1)C2 [LAF237] | 1.1±0.2 | – | – | –
GLP-1: incretin hormone composed of total 30 amino acids, facilitates insulin secretion | – | ~0.01 | complete normalization in the blood glucose level | nearly normal blood glucose level
